This is an account of results in ChEMBL document CHEMBL1143698, “Conformation selectivity in the binding of diazepam and analogues to alpha1-acid glycoprotein” (Bioorg Med Chem, 2007).

Data set [1] has as its target Alpha-1-acid glycoprotein 1 (Homo sapiens, UniProt P02763). Nature of the data set: Binding affinity to human alpha1-acid glycoprotein at 30 uM.
The next data set has as its target Albumin (Homo sapiens, UniProt P02768). Nature of the data set: Binding affinity to 30 uM human serum albumin at 30 uM.
For data set [2], the species on record is Homo sapiens. Nature of the data set: Binding affinity to human alpha1-acid glycoprotein F1-S variant at 30 uM.
For data set [3], the species on record is Homo sapiens. As to the kind of experiment: Binding affinity to human alpha1-acid glycoprotein A variant at 30 uM.
For data set [4], the species on record is Homo sapiens. As to the kind of experiment: Binding affinity to human alpha1-acid glycoprotein F1-S variant at 60 uM.
The species entered for data set [5] is Homo sapiens. Nature of the data set: Binding affinity to human alpha1-acid glycoprotein A variant at 60 uM.

Each structure is given as a SMILES string.

Alpha-1-acid glycoprotein 1, sequence (P02763 whole entry): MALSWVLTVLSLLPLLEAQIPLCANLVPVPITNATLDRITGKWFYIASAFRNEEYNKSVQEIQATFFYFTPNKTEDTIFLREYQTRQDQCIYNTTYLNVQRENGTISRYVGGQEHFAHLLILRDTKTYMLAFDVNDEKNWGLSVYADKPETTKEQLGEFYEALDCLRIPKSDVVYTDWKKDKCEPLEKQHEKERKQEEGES
Albumin, sequence (P02768 whole entry): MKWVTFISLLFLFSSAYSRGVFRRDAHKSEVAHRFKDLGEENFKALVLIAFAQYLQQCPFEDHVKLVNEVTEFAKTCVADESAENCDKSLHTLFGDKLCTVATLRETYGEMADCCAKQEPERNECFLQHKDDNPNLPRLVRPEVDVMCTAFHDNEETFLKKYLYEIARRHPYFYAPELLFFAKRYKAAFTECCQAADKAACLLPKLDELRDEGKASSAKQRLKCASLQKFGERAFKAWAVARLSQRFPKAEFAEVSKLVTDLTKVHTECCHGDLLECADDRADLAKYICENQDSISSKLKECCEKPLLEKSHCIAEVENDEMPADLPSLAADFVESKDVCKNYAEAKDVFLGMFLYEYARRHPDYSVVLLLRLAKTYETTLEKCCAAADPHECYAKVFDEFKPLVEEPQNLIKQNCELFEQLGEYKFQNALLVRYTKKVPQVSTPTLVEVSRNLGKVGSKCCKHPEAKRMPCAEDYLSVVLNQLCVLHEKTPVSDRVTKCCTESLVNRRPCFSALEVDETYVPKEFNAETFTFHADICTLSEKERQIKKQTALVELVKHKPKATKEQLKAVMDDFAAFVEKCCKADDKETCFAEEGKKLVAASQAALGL

As to `CC1(C)N=C(c2ccccc2)c2cc(Cl)ccc2NC1=O`, the Activity in data set [1] was found to be 13 µM; at Albumin, 13 µM; in the data set filed under Homo sapiens [2], 9 µM; in the data set listed under Homo sapiens [3], 12 µM.

For the compound `CN1C(=O)C(C)(C)N=C(c2ccccc2)c2cc(Cl)ccc21`, the Activity was 14 µM in data set [1] and 17 µM at Albumin.

With `CN1C(=O)CN=C(c2ccccc2)c2cc(Cl)ccc21` [DIAZEPAM], the Activity in data set [1] is 10 µM; in the data set filed under Homo sapiens [2], 9 µM; in the data set listed under Homo sapiens [4], 12 µM; in the data set listed under Homo sapiens [3], 12 µM; in the data set filed under Homo sapiens [5], 17 µM.

Take `O=C1CN=C(c2ccccc2)c2cc(Cl)ccc2N1` [NORDAZEPAM]: the Activity in data set [1] turned out to be 9 µM; on Albumin, 17 µM.
